According to ChEMBL document CHEMBL1201862, “PubChem BioAssay data set” (2004):
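Growth conditions: 96-well plates. Treatment: test compound, 48 hours, 5 concentrations. Analysis: linear interpolation between bracketing concentrations; unreached endpoints set to highest concentration. The concentration for 50% growth inhibition is given as GI50.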 Calls of active or inactive are those of the source. No stated cut-off is given here; in the data, active = GI50 up to about 1.1 µM and inactive = higher.

Experiments:
Assay in all cases: DTP human tumour cell line panel, 48 h
[1] = system: 786-0
[2] = system: A549
[3] = system: ACHN
[4] = system: CCRF-CEM
[5] = system: HT-29
[6] = system: KM-20L2
[7] = system: LOX IMVI
[8] = system: NCI-H226
[9] = system: NCI-H23
[10] = system: SK-MEL-2
[11] = system: SK-MEL-5
[12] = system: SK-OV-3
[13] = system: SNB-19
[14] = system: SNB-75
[15] = system: TK-10
[16] = system: U-251
[17] = system: DU-145
[18] = system: MDA-MB-231
[19] = system: MDA-N

Measured: GI50

CC(C)(C)[C@H]1CO[C@]2(C)[C@@H]3C[C@@H]3C(=O)N12
inactive: [1] > 100 µM | [2] > 100 µM | [3] > 100 µM | [4] > 100 µM | [5] > 100 µM | [6] > 100 µM | [7] > 100 µM | [8] > 100 µM | [9] > 100 µM | [10] > 100 µM | [11] > 100 µM | [12] > 100 µM | [13] > 100 µM | [14] > 100 µM | [15] > 100 µM | [16] > 100 µM

CC1[C@@]2(CCC(C)(C)O2)O[C@@H]2C=C3C4CCC5Cc6nc7c(nc6C[C@@]5(C)C4C[C@H](O)[C@@]3(C)[C@]12O)CC1CCC2C3=C[C@H]4O[C@@]5(O[C@@](C)(CO)C[C@@H]5O)C(C)[C@@]4(O)[C@]3(C)[C@@H](O)CC2[C@]1(C)C7 (stereo partly drawn)
active: [1] 0.0168 µM | [2] 0.0953 µM | [3] 0.103 µM | [4] 0.0199 µM | [5] 0.109 µM | [6] 0.0509 µM | [7] 0.0526 µM | [8] 0.0428 µM | [9] 0.118 µM | [10] 0.0783 µM | [11] 0.0951 µM | [12] 0.0863 µM | [13] 0.224 µM | [14] 0.00762 µM | [15] 0.681 µM | [16] 0.0266 µM

CC(=O)C(CN(CC(C)C)CC(C)C)C(c1ccccc1)c1c(O)c2ccccc2oc1=O (stereo not drawn)
inactive: [1] > 100 µM | [2] > 100 µM | [3] > 100 µM | [4] > 10 µM | [5] > 100 µM | [6] > 100 µM | [7] > 100 µM | [8] > 100 µM | [9] > 100 µM | [10] > 100 µM | [12] > 100 µM | [13] > 100 µM | [14] > 100 µM | [15] > 100 µM

Cc1cc(N(CCC#N)CCC#N)ccc1/N=N/c1cccc(Cl)c1
inactive: [1] > 100 µM | [2] 9.93 µM | [3] > 100 µM | [4] > 100 µM | [5] 4.08 µM | [6] > 100 µM | [8] > 100 µM | [9] 80.7 µM | [10] > 100 µM | [11] > 100 µM | [12] > 100 µM | [13] 51.8 µM | [15] > 100 µM | [16] > 100 µM

O=C(c1ccccc1)c1c(C(=O)c2ccccc2)c(-c2ccccc2)c2c(-c3ccccc3)sc(-c3ccccc3)c2c1-c1ccccc1
inactive: [1] > 100 µM | [2] > 100 µM | [3] > 100 µM | [4] > 100 µM | [5] > 100 µM | [6] > 100 µM | [7] > 100 µM | [8] > 100 µM | [9] > 100 µM | [11] > 100 µM | [12] > 100 µM | [13] > 100 µM | [14] > 100 µM | [15] > 100 µM | [16] > 100 µM

N=C1N(/N=C/c2ccccn2)/C(=N\c2ccccc2)C(=S)N1c1ccccc1
inactive: [1] 2.94 µM | [2] 5.51 µM | [3] 2.55 µM | [4] 2.05 µM | [17] 3.31 µM | [5] 2.97 µM | [7] 2.22 µM | [18] 6.7 µM | [19] 3.56 µM | [8] 13.5 µM | [9] 6.07 µM | [10] 2.14 µM | [11] 4.48 µM | [12] 16.6 µM | [13] 15.4 µM | [14] 15.3 µM | [15] 11 µM | [16] 8.18 µM

COc1ccc2oc(=O)c(-c3nc4ccccc4o3)cc2c1
inactive: [1] > 100 µM | [2] > 100 µM | [3] > 100 µM | [4] > 100 µM | [17] > 100 µM | [5] > 100 µM | [7] > 100 µM | [18] 32.7 µM | [19] 29.1 µM | [8] > 100 µM | [9] > 100 µM | [10] > 100 µM | [11] 39.1 µM | [12] > 100 µM | [13] > 100 µM | [14] 55.1 µM | [15] > 100 µM | [16] > 100 µM

Cc1cccc(NC2=NC(=O)C(CC(=O)Nc3ccccc3Cl)S2)c1 (stereo not drawn)
inactive: [1] > 100 µM | [2] > 100 µM | [3] > 100 µM | [4] > 100 µM | [5] > 100 µM | [6] > 100 µM | [7] > 100 µM | [8] > 100 µM | [9] > 100 µM | [10] > 100 µM | [11] > 100 µM | [13] > 100 µM | [14] > 100 µM | [15] > 100 µM

CCC1C(=O)OCc2c1cc1n(c2=O)Cc2cc3ccccc3nc2-1 (stereo not drawn)
inactive: [1] 3.23 µM | [2] 5.09 µM | [3] 3.28 µM | [17] 2.98 µM | [5] 29.5 µM | [7] 3.78 µM | [18] > 100 µM | [19] 45.6 µM | [8] 10.8 µM | [9] 2.84 µM | [10] > 100 µM | [11] 5.79 µM | [12] 43.6 µM | [13] 5.13 µM | [14] 1.96 µM | [15] > 100 µM | [16] 3.53 µM
active: [4] 0.377 µM

Cc1cccc2c(N)c3cccc(C(=O)NCC[N+](C)(C)Cc4sc(N5CCOCC5)nc4[N+](=O)[O-])c3nc12
active: [1] 0.547 µM | [2] 0.178 µM | [3] 0.381 µM | [4] 0.217 µM | [5] 0.444 µM | [7] 0.685 µM
inactive: [17] 4.01 µM | [18] 2.28 µM | [19] 3.82 µM | [8] 1.51 µM | [9] 2.26 µM | [10] 22.6 µM | [11] 5.01 µM | [12] 1.82 µM | [13] 4.82 µM | [14] 5.86 µM | [15] 10.3 µM | [16] 3.04 µM

CN(C)CCN(C)C(=O)C1CCCN1C(=O)OCc1ccccc1 (stereo not drawn)
inactive: [1] > 100 µM | [2] > 100 µM | [3] > 100 µM | [4] 19.4 µM | [5] > 100 µM | [6] > 100 µM | [7] > 100 µM | [8] > 100 µM | [9] > 100 µM | [10] > 100 µM | [11] > 100 µM | [12] > 100 µM | [13] > 100 µM | [14] > 100 µM | [15] > 100 µM | [16] > 100 µM

Cc1oc2c(C)c(O)c3c(c2c1C1(C)OCCO1)C(=O)C=C(Cl)C3=O
inactive: [1] > 100 µM | [2] > 100 µM | [3] > 100 µM | [4] > 100 µM | [5] > 100 µM | [6] > 100 µM | [7] > 100 µM | [8] > 100 µM | [9] > 100 µM | [10] > 100 µM | [11] > 100 µM | [13] > 100 µM | [15] > 100 µM | [16] > 100 µM

CC1(C)CCCCCCCCCC2CC2CCC(C)(C)C1=O (stereo not drawn)
inactive: [1] 17.2 µM | [2] 22.9 µM | [3] 19.1 µM | [4] 21.6 µM | [17] 20.5 µM | [5] 20.3 µM | [7] 19 µM | [18] 17.3 µM | [19] 30.9 µM | [8] 14.2 µM | [9] 40.5 µM | [10] 18.6 µM | [11] 22.8 µM | [12] 34 µM | [13] 34.6 µM | [14] 28.6 µM | [15] 22.9 µM | [16] 18.7 µM

C=CCN1CCC(O)(c2cc(C(=O)OCC)[nH]c2-c2cc(C)no2)C1 (stereo not drawn)
inactive: [1] > 100 µM | [2] > 100 µM | [3] > 100 µM | [4] > 100 µM | [17] > 100 µM | [5] > 100 µM | [7] > 100 µM | [18] > 100 µM | [19] > 100 µM | [8] > 100 µM | [9] > 100 µM | [10] > 100 µM | [11] > 100 µM | [12] > 100 µM | [13] > 100 µM | [14] > 100 µM | [15] > 100 µM | [16] > 100 µM

OCC1OC(c2scc3c(=S)[nH]cnc23)C(O)C1O (stereo not drawn)
active: [17] 0.859 µM
inactive: [1] 8.99 µM | [2] 31.7 µM | [3] 4.84 µM | [4] 20.8 µM | [5] 5.12 µM | [7] 2.86 µM | [18] 4.61 µM | [19] 15 µM | [8] 16 µM | [9] 21 µM | [10] 13.4 µM | [11] 22.7 µM | [12] 2.54 µM | [13] 72.3 µM | [14] 2.32 µM | [15] 5.45 µM | [16] > 93.3 µM

COC(=O)/C(=C\Nc1cccc(C)n1)S(=O)(=O)c1ccc(C)cc1
inactive: [1] > 100 µM | [2] 60 µM | [3] > 100 µM | [4] 37.8 µM | [17] > 100 µM | [5] 47.4 µM | [7] 79.4 µM | [18] 64.3 µM | [19] 30.1 µM | [8] 36.5 µM | [9] 40.6 µM | [10] 33.4 µM | [11] 36.8 µM | [12] > 100 µM | [13] 39.2 µM | [14] 71 µM | [15] 96.2 µM | [16] 73.3 µM
